From the supplement of paper PMC10307832

Assays:
Experiment in all cases: relative viability (nuclei count vs DMSO), 5 days (fraction); higher = more cells survive
XMD8-85 + Alpelisib = compound: CN1CCN(CC1)C2=CC(=C(C=C2)NC3=NC=C4C(=N3)N(C5=CC=CC=C5C(=O)N4C)C)OC [XMD8-85] + Cc1nc(NC(=O)N2CCC[C@H]2C(N)=O)sc1-c1ccnc(C(C)(C)C(F)(F)F)c1 [Alpelisib] (partner 2 µM)
Outline: (§1)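 For relative viability, nuclei counts in treated wells were divided by those in vehicle wells. Lung cancer cell lines had been pin-tool dosed in 1536-well plates the day after seeding and cultured for 5 days, then fixed and stained in one step (final 0.05% Triton X-100, 1% formaldehyde, 1 ug/ml Hoechst) and imaged at 4×. Doses were one drug alone or a fixed anchor-drug dose plus five library-drug doses (not always all listed) in √10 steps, and values are duplicate-plate medians.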

XMD8-85 + Dasatinib = compound: CN1CCN(CC1)C2=CC(=C(C=C2)NC3=NC=C4C(=N3)N(C5=CC=CC=C5C(=O)N4C)C)OC [XMD8-85] + Cc1nc(Nc2ncc(C(=O)Nc3c(C)cccc3Cl)s2)cc(N2CCN(CCO)CC2)n1 [Dasatinib] (partner 0.075 µM)
Outline: as §1

4EGI-1 + Phenformin = compound: O=C(O)C(Cc1ccccc1[N+](=O)[O-])=NNc1nc(-c2ccc(Cl)c(Cl)c2)cs1 (mixture of isomers) [4EGI-1] + N=C(N)NC(=N)NCCc1ccccc1 [Phenformin] (partner 250 µM)
Outline: as §1

4EGI-1 + Foretinib = compound: O=C(O)C(Cc1ccccc1[N+](=O)[O-])=NNc1nc(-c2ccc(Cl)c(Cl)c2)cs1 (mixture of isomers) [4EGI-1] + COc1cc2c(Oc3ccc(NC(=O)C4(C(=O)Nc5ccc(F)cc5)CC4)cc3F)ccnc2cc1OCCCN1CCOCC1 [Foretinib] (partner 0.25 µM)
Outline: as §1

Row | Cell Line | relative viability (XMD8-85 + Alpelisib; first compound 0.253 µM) | relative viability (XMD8-85 + Alpelisib; first compound 0.8 µM) | relative viability (XMD8-85 + Alpelisib; first compound 2.53 µM) | relative viability (XMD8-85 + Alpelisib; first compound 8 µM) | relative viability (XMD8-85 + Dasatinib; first compound 0.08 µM) | relative viability (XMD8-85 + Dasatinib; first compound 0.253 µM) | relative viability (XMD8-85 + Dasatinib; first compound 0.8 µM) | relative viability (XMD8-85 + Dasatinib; first compound 2.53 µM) | relative viability (XMD8-85 + Dasatinib; first compound 8 µM) | relative viability (4EGI-1 + Phenformin; first compound 0.5 µM) | relative viability (4EGI-1 + Phenformin; first compound 1.581 µM) | relative viability (4EGI-1 + Phenformin; first compound 5 µM) | relative viability (4EGI-1 + Phenformin; first compound 15.81 µM) | relative viability (4EGI-1 + Phenformin; first compound 50 µM) | relative viability (4EGI-1 + Foretinib; first compound 0.5 µM) | relative viability (4EGI-1 + Foretinib; first compound 1.581 µM) | relative viability (4EGI-1 + Foretinib; first compound 5 µM) | relative viability (4EGI-1 + Foretinib; first compound 15.81 µM) | relative viability (4EGI-1 + Foretinib; first compound 50 µM) | relative viability (XMD8-85 + Alpelisib; first compound 0.08 µM)
1 | NCI-H596 | 0.558 | 0.511 | 0.411 | 0.403 | 0.599 | 0.541 | 0.553 | 0.556 | 0.545 | 0.859 | 0.732 | 1.01 | 0.961 | 0.705 | 0.856 | 0.644 | 0.796 | 0.757 | 0.75 | –
2 | NCI-H1975 | 0.649 | 0.656 | 0.727 | 0.372 | 0.317 | 0.345 | 0.384 | 0.38 | 0.236 | 0.444 | 0.356 | 0.407 | 0.442 | 0.361 | 0.932 | 0.814 | 1.01 | 0.844 | 0.729 | 0.578
3 | H3255 | 0.745 | 0.68 | 0.776 | 0.406 | 0.45 | 0.325 | 0.353 | 0.333 | 0.335 | 0.424 | 0.347 | 0.385 | 0.308 | 0.324 | 0.982 | 0.788 | 0.907 | 0.775 | 0.823 | 0.586
4 | COR-L 105 | 1.22 | 0.926 | 0.635 | 0.358 | 0.336 | 0.364 | 0.292 | 0.268 | 0.171 | 0.46 | 0.442 | 0.488 | 0.375 | 0.31 | 0.983 | 0.172 | 0.993 | 0.863 | 0.728 | –
5 | EBC-1 | 0.94 | – | 0.694 | 0.336 | – | – | – | – | – | – | – | – | – | – | 0.0952 | 0.0989 | 0.0859 | 0.0982 | 0.103 | 0.871
6 | COR-L23 | 0.887 | 0.742 | 0.712 | 0.506 | 0.516 | 0.502 | 0.555 | 0.63 | 0.347 | 0.49 | 0.275 | 0.429 | 0.296 | 0.144 | 1.08 | 0.728 | 0.98 | 0.736 | 0.29 | 0.882
7 | NCI-H1793 | 0.769 | 0.666 | 0.851 | 0.668 | 0.384 | 0.403 | 0.404 | 0.413 | 0.338 | 0.375 | 0.47 | 0.418 | 0.367 | 0.297 | 0.645 | 0.948 | 0.686 | 0.443 | 0.33 | 0.914
8 | NCI-H2085 | 0.917 | 1.01 | 0.852 | 0.728 | 0.275 | 0.265 | 0.235 | 0.203 | 0.197 | 0.8 | 0.795 | 0.823 | 0.536 | 0.404 | 0.826 | 1.02 | 1.07 | 0.814 | 0.541 | 0.966
